# Measurements published in patent US20260007133A1, “HERBICIDAL COMPOSITION COMPRISING AZINE COMPOUNDS” (BASF SE, priority 2022, published 2026).
# Where two headings read alike, the source gives them in different places.
# Legend:
# Assay type in all cases: in vivo
# [1] = tested on: Lolium multiflorum; experiment: Greenhouse pre-emergence (PRE) herbicidal test on LOLMU; conditions: Lolium multiflorum, pre-emergence; for inhibition at 1 g/ha: use rate 1 gai/ha
# Summary of the method: (§1)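 Seeds were sown per species in pots of loamy sand with about 3.0% humus, treated pre-emergence, watered and hooded until rooted. Plants grew at 10-25° C or 20-35° C depending on species. Damage was scored 0-100 (100 = no emergence or above-ground parts destroyed) at 20 DAT.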
# [2] = tested on: Abutilon theophrasti; experiment: Greenhouse pre-emergence (PRE) herbicidal test on ABUTH; conditions: Abutilon theophrasti, pre-emergence
# Summary of the method: as §1
# [3] = tested on: Avena fatua; experiment: Greenhouse pre-emergence (PRE) herbicidal test on AVEFA; conditions: use rate 4 gai/ha
# Description: (§2) The culture containers used were plastic pots containing loamy sand with approximately 3.0% of humus as substrate. The seeds of the test plants were sown separately for each species.
# (§3) For the pre-emergence treatment, the active compounds, suspended or emulsified in water, were applied directly after sowing by means of finely distributing nozzles. The containers were irrigated gently to promote germination and growth and subsequently covered with transparent plastic hoods until the plants had rooted. This cover caused uniform germination of the test plants unless this was adversely affected by the active compounds.
# (§4) Depending on the species, the plants were kept at 10-25° C. and 20-35° C., respectively.
# (§5) The test period extended over 2 to 4 weeks. During this time, the plants were tended and their response to the individual treatments was evaluated.
# (§6) Evaluation was carried out using a scale from 0 to 100. 100 means no emergence of the plants, or complete destruction of at least the above-ground parts, and 0 means no damage or normal course of growth. A good herbicidal activity is given at values of at least 70, and very good herbicidal activity is given at values of at least 85.
# (§7) If not stated differently, the respective components A and B, and if appropriate, C were formulated as a 5% by weight strength emulsion concentrate and, with addition of the amount of solvent system, introduced into the spray liquor used for applying the active compound.
# (§8) As indicated application was either post emergent (POST) at the respective growth stage (GS) of the weed (BBCH code), or pre-emergent (PRE).
# (§9) Assessment was 20 days after treatment (DAT).
# [4] = tested on: Digitaria sanguinalis; experiment: Greenhouse post-emergence (POST) herbicidal test on DIGSA; conditions: Digitaria sanguinalis, post-emergence; for inhibition at 2 g/ha: use rate 2 gai/ha; for inhibition at 2 g/ha / inhibition at 1 g/ha: read-out: % activity; for inhibition at 4 g/ha: use rate 4 gai/ha; for inhibition at 1 g/ha: use rate 1 gai/ha
# Summary of the method: (§10)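 Greenhouse weeds, raised in pots of humus-containing loamy sand, receive a water-based spray of the actives once 3 to 15 cm tall. Damage is rated visually from 0 (none) to 100 (above-ground parts destroyed) 20 days after treatment.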
# [5] = tested on: Ambrosia artemisiifolia; experiment: Greenhouse pre-emergence (PRE) herbicidal test on AMBEL; conditions: Ambrosia artemisiifolia, pre-emergence, 480 h, PRE, AMBEL, use rate 1 gai/ha, 20 DAT
# [6] = tested on: Euphorbia heterophylla; experiment: Greenhouse post-emergence (POST) herbicidal test on EPHHL; conditions: Euphorbia heterophylla, post-emergence, POST, EPHHL; for inhibition at 2 g/ha: use rate 2 gai/ha, read-out: % activity
# Summary of the method: as §10
# [7] = tested on: Geranium pusillum; experiment: Greenhouse pre-emergence (PRE) herbicidal test on GERPU; conditions: Geranium pusillum, pre-emergence; for inhibition at 4 g/ha: use rate 4 gai/ha
# Summary of the method: (§11)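 Seeds sown per species in pots of loamy sand with approx. 3.0% humus; compounds suspended or emulsified in water were sprayed via fine nozzles directly after sowing. Pots were watered and hooded until rooted, held at 10-25° C. or 20-35° C. by species, and scored 0–100 (100 = no emergence/complete destruction) 20 DAT.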
# [8] = tested on: Euphorbia heterophylla; experiment: Greenhouse pre-emergence (PRE) herbicidal test on EPHHL
# Summary of the method: as §1
# [9] = tested on: Geranium pusillum; experiment: Greenhouse post-emergence (POST) herbicidal test on GERPU; conditions: Geranium pusillum, post-emergence; for inhibition at 4 g/ha: use rate 4 gai/ha
# Summary of the method: as §10
# [10] = tested on: Galium aparine; experiment: Greenhouse pre-emergence (PRE) herbicidal test on GALAP; conditions: Galium aparine, pre-emergence; PRE; GALAP; use rate 1 gai/ha
# Description: as §2, §3, §4, §5, §6, §7, §8, §9
# [11] = tested on: Setaria viridis; experiment: Greenhouse pre-emergence (PRE) herbicidal test on SETVI; conditions: Setaria viridis, pre-emergence, 480 h; PRE, SETVI, use rate 2 gai/ha, 20 DAT; read-out: % activity
# Summary of the method: as §11
smiles,measurement,setting,value
COc1c(F)cc(F)c(F)c1Nc1nc(N)nc(C(C)(C)F)n1 [Compound I-1],inhibition at 1 g/ha,"[1]; 480 h, PRE, LOLMU, 20 DAT",40%
same,inhibition at 2 g/ha,"[1]; 480 h, PRE, LOLMU, use rate 2 gai/ha, 20 DAT, read-out: % activity",50%
same,inhibition at 1 g/ha,[1]; LOLMU PRE,20%
same,inhibition at 4 g/ha,"[1]; LOLMU PRE, use rate 4 gai/ha",85%
same,inhibition at 1 g/ha,"[1]; PRE, LOLMU",35%
same,inhibition at 2 g/ha,"[2]; 480 h, PRE, ABUTH, use rate 2 gai/ha, 20 DAT, read-out: % activity",65%
same,inhibition at 4 g/ha,"[2]; 480 h, PRE, ABUTH, use rate 4 gai/ha, 20 DAT",75%
same,inhibition at 1 g/ha,"[2]; ABUTH PRE, use rate 1 gai/ha, read-out: % activity",75%
same,inhibition at 4 g/ha,[3],70%
same,inhibition at 2 g/ha,"[4]; 480 h, POST, DIGSA, 20 DAT",0%
same,inhibition at 4 g/ha,"[4]; 480 h, POST, DIGSA, 20 DAT",30%
same,inhibition at 1 g/ha,[4]; DIGSA POST,5%
same,inhibition at 4 g/ha,[4]; DIGSA POST,25%
same,inhibition at 1 g/ha,"[4]; POST, DIGSA",0%
same,inhibition at 2 g/ha,"[4]; POST, DIGSA",10%
same,inhibition at 1 g/ha,[5],10%
same,inhibition at 2 g/ha,"[6]; 480 h, 20 DAT",50%
same,inhibition at 4 g/ha,"[6]; 480 h, use rate 4 gai/ha, 20 DAT",60%
same,inhibition at 2 g/ha,[6],40%
same,inhibition at 4 g/ha,"[7]; 480 h, PRE, GERPU, 20 DAT",50%
same,inhibition at 1 g/ha,"[7]; GERPU PRE, use rate 1 gai/ha",0%
same,inhibition at 4 g/ha,[7]; GERPU PRE,20%
same,inhibition at 4 g/ha,"[7]; PRE, GERPU",10%
same,% activity,"[8]; EPHHL PRE, use rate 4 gai/ha",20%
same,inhibition at 16 g/ha,"[8]; Euphorbia heterophylla, pre-emergence, 480 h, PRE, EPHHL, use rate 16 gai/ha, 20 DAT",60%
same,inhibition at 4 g/ha,"[8]; Euphorbia heterophylla, pre-emergence, EPHHL PRE, use rate 4 gai/ha",25%
same,inhibition at 1 g/ha,"[8]; Euphorbia heterophylla, pre-emergence, PRE, EPPHL, use rate 1 gai/ha, read-out: % activity",0%
same,inhibition at 4 g/ha,"[8]; Euphorbia heterophylla, pre-emergence, PRE, EPPHL, use rate 4 gai/ha",70%
same,inhibition at 2 g/ha,"[9]; 480 h, POST, GERPU, use rate 2 gai/ha, 20 DAT, read-out: % activity",0%
same,inhibition at 4 g/ha,"[9]; 480 h, POST, GERPU, 20 DAT",0%
same,inhibition at 8 g/ha,"[9]; 480 h, POST, GERPU, use rate 8 gai/ha, 20 DAT, read-out: % activity",50%
same,inhibition at 16 g/ha,"[9]; 480 h, POST, GERPU, use rate 16 gai/ha, 20 DAT",70%
same,inhibition at 4 g/ha,[9]; GERPU POST,55%
same,inhibition at 1 g/ha,"[9]; POST, GERPU, use rate 1 gai/ha",30%
same,inhibition at 1 g/ha,[10],0%
same,inhibition at 2 g/ha,[11],20%
